Assays:
[1] = system: E. coli; conditions: cited from earlier work
[2] = Encapsulation (loading) efficacy of essential oils / active ingredients into AgriCell; format: physicochemical
Protocol: After AgriCells are purified, the concentrated AgriCell paste or dry lyophilized powder is loaded with EOs. If dry, the AgriCells are first homogenized into a finer powder through mechanical homogenization. A stock solution from each EO is prepared in ethanol at 100 mg/mL-200 mg/mL. Lyophilized AgriCells would then be suspended in a solution with the EO solution at a ratio of 1 g of dry AgriCells to 10 mL of EO solution. Once resuspended, the ethanol is allowed to evaporate overnight, leaving behind EO encapsulated AgriCells in the process. After this overnight period, encapsulated AgriCells are removed from the beaker, and the EO-encapsulated AgriCell powder is mechanically homogenized. This encapsulated product is ready for resuspension in its appropriate medium. Loading efficacy was measured and/or calculated as percentage of EO loaded into AgriCell after extraction with ethanol 100% v/v and quantification by UV-Vis spectroscopy. Eugenol and thymol were quantified at 280 nm, whereas pyrethrum was quantified at 230 nm against its respective calibration standard curve. Also, Genistein was quantified at […], whereas eugenol was quantified at 280 nm against its respective calibration standard curve.

[3] = Thermal degradation of essential oils at 40° C.; format: physicochemical; conditions: day 7 at 40° C., diluted 1:10 in deionized water
Protocol: AgriCell-encapsulated EOs (200 mg/mL of EO loaded with 200 mg/mL of AgriCell) were diluted 1:10 in deionized water (total volume 1000 μL, 14 replicates for each EO) and the solutions were left at 40° C. for a total period of 7 days. One replicate of each EO per treatment was collected daily and tested for EO content. Results were reported as concentration of EO as function of time for each stability condition.

[4] = Auto-oxidative degradation of essential oils under UV and Vis light; format: physicochemical; conditions: after 7 days under UV and Vis light
Protocol: AgriCell-encapsulated EOs (200 mg/mL of EO loaded with 200 mg/mL of AgriCell) were diluted 1:10 in deionized water (total volume 1000 μL, 14 replicates for each EO) and the solutions were left under UV radiation for a total period of 7 days. One replicate of each EO per treatment was collected daily and tested for EO content by UV-Vis spectroscopy as described in Example 2. Results were reported as concentration of EO as function of time for each stability condition.

[5] = system: Escherichia coli ATCC 25922; experiment: Zone of inhibition test (Kirby-Bauer); format: cell-based; conditions: ATCC25922, read-out: growth inhibition compared to positive control (Vancomycin 30 μg/mL)
Protocol: (§1) In this example, the zone of inhibition test, also called a Kirby-Bauer Test, was conducted to measure antibiotic resistance of eugenol encapsulated into AgriCell. Approximately 1×10^8 cells from a selected bacterial strain (Escherichia coli ATCC 25922 and Pseudomonas aeruginosa ATCC 15442) were spread over an agar plate using a sterile swab, then incubated in the presence of the antimicrobial agent (adsorbed over a paper disc). If the bacterial strain is susceptible to the antimicrobial agent, then a zone of inhibition appears on the agar plate, whereas if the selected bacterial strain is resistant to the antimicrobial agent, then no zone is evident.

[6] = system: Pseudomonas aeruginosa ATCC 15442; experiment: Zone of inhibition test (Kirby-Bauer); format: cell-based; conditions: ATCC15442, read-out: growth inhibition compared to positive control (Vancomycin 30 μg/mL)
Protocol: as §1

[7] = system: H. pylori; conditions: 2 mg/L; cited from earlier work
[8] = HEL release from AgriCell in PBS; format: physicochemical; conditions: PBS pH 7.3, 37° C.
Protocol: Samples were incubated at 37° C. under mild shaking. After 15, 30, 45, 60, 90, 120, 180, and 240 minutes, the tubes were given a spin-off and samples of 250 μL of the supernatant were taken. These samples were replaced by PBS (pH 7.3). The non-encapsulated HEL in PBS was determined with the Lowry protein assay and AgriCell-encapsulated HEL was determined by arithmetic differential calculation.

[9] = system: 3A9 T-cell hybridomas cocultured with mouse peritoneal macrophages; experiment: IL-2 expression in 3A9 T-cell hybridomas cocultured with macrophages (ELISA); format: cell-based; conditions: 10 mg/mL
Protocol: Mouse peritoneal macrophages were resuspended in media and plated in 24-well cell-culture plates at a concentration of 1×10^8 cells/well. After 3 hours, the macrophages were attached and washed with DMEM media until cells other than macrophages were removed. Supplemented media (DMEM, 10% FBS, 2 mM of L-alanyl-L-glutamine, 100 U/mL of media penicillin and 100 U/mL of media streptomycin) was added and the macrophages were incubated overnight at 37° C. and 5% CO2. The 3A9 T-cell hybridomas were maintained in DMEM supplemented with 10% FBS, 50 μg of gentamycin/mL media, 2 mM of L-alanyl-L-glutamine, 10 mM of HEPES buffer, 55 μM of 2-mercaptoethanol, and 1× non-essential amino acids. For experiments, media was removed from the macrophages and rinsed once with PBS. […] The media was removed, and cells washed once with PBS. The T-cell hybridomas (concentration equals 2× the number of macrophages) in 3A9 media (without phenol red) were added to the macrophages and incubated for 24 hours. Media was removed, placed in microfuge tubes, centrifuged for 4 minutes at 15,000×g, and IL-2 was measured by an ELISA kit (555148, BD Biosciences). Data were expressed as pg of IL-2/mL media.

[10] = system: E. coli strain ATCC 8739; experiment: Bacterial agglutination (transmittance at 450 nm); format: cell-based; conditions: 300 μg/mL
Protocol: E. coli strain ATCC 8739 (which causes disease outside of the intestinal tract and its highly virulent in chickens) from a frozen stock was cultured in tryptose broth (10 g of tryptose, 2.5 g of sodium chloride, 0.5 g of dextrose, and 0.0025 g of thiamin hydrochloride in 500 mL of deionized water) at 37° C. for 48 hours. After incubation, 1 mL of E. coli cultures were taken from the surface of the broth and used to inoculate new broths that were incubated at 37° C. for 24 hours. After 24 hours, the bacterial cultures were centrifuged at 1800 g for 10 minutes to obtain bacterial pellets. The pellets were washed twice with 1x PBS+Ca^2+/Mg^2+ and then resuspended in 1 mL of PBS+Ca^2+/Mg^2+ to obtain the bacterial stock solutions. The optical density of the suspension was measure at 600 nm and bacterial cell densities (CFU/mL) were calculated using previously established bacterial growth curves for each strain of bacteria. […] The final concentration of each cuvette was 300 μg/mL of genistein equivalent and 5.0×10^8 CFU/mL in a total volume of 1 mL. The cuvettes were mixed via trituration and placed on an UV-Visible spectrophotometer equipped with an eight-position cuvette holder. The percent transmittance of light at 450 nm was measured every 1 min for 240 min. […] After 240 min, the area under the curve was calculated from the generated transmittance calibration curves.

[11] = AI 100 mg/mL encapsulated into AgriCell (FIG. 4B)
[12] = EO 200 mg/mL encapsulated into AgriCell (FIG. 4A)

| Compound | encapsulation efficacy [2, 11] [%] | encapsulation efficacy [2, 12] [%] | percentages of degradation [3] [%] | autoxidatively degraded (degradation rates) [4] [%] | existence (remained/not damaged) [4] [%] | also measured |
| --- | --- | --- | --- | --- | --- | --- |
| CC(C)=CCCC(C)=CC=O [citral] |  |  |  |  |  | concentration in growth media that reduced the concentration of E. coli [1]: more than 0.01%; concentration with bactericidal effect [1]: 0.08% |
| C=CCc1ccc(O)c(OC)c1 [eugenol] | 91.1 | 95.5 | 17.3 | 82.7 | 17.3 | inhibition at 200 µg/mL [5]: < 80%; inhibition at 200 µg/mL [6]: < 60% |
| CC(C)=CCC/C(C)=C/CO [geraniol] |  |  |  |  |  | growth of H. pylori in vitro [7]: inhibited the growth |
| Cc1ccc(C(C)C)c(O)c1 [thymol] |  | 91.8 | 20.9 | 55.8 | 44.2 |  |
| HEL: hen egg-white lysozyme, model protein antigen, 14.7 kDa |  |  |  |  |  | HEL released, initial burst stage ([8]; 15 minutes): 89.2%; HEL released ([8]; 240 minutes): 100.1%; preincubation time to maximum IL-2 expression [9]: > 10 h |
| O=c1c(-c2ccc(O)cc2)coc2cc(O)cc(O)c12 [genistein] | 83.6 |  |  |  |  | lag phase of agglutination curve [10]: about 25 minutes |

Source: US20230044257A1, “COMPOSITIONS AND METHODS FOR ENHANCED UPTAKE OF ACTIVE INGREDIENTS FOR ANIMAL HEALTH AND NUTRITION” (AgroSpheres, Inc., priority 2019, published 2023)
